Measurements from US7528284B2, “Method for producing xylylenediamine (XDA)” (BASF Aktiengesellschaft, priority 2003, dated 2009).

Test: Investigations of solubility of IPN in different solvents
Assay type: physicochemical
Method: Investigations of Solubility of IPN in Different Solvents
At 60° C., the solubility of IPN in mesitylene or pseudocumene is in each case below 10% by weight.

## N#Cc1cccc(C#N)c1 [IPN, 1,3-dicyanobenzene]
At 60° C.
  solubility of IPN in NMP: approx. 26 % by weight
  solubility of IPN in mesitylene: below 10 % by weight
  solubility of IPN in pseudocumene: below 10 % by weight
At 90° C.
  solubility of IPN in NMP: approx. 41 % by weight
  solubility of IPN in mesitylene: 12 % by weight
  solubility of IPN in pseudocumene: 20 % by weight
